Reference: patent US8232240B2, “Inhibitors of enveloped virus infectivity” (priority 2005, dated 2012)
Entries after “also recorded” stand apart in the source; their conditions may differ. Where a SMILES comes first, the peptide text is derived from it. The star is where a group is joined. Cbz = O=C(OCc1ccccc1)*; CHN2 = [N-]=[N+]=C*; tBu = CC(C)(C)*

Key:
EboV-Zaire (1995 strain) = type: cell-based
[1] = system: Marburg (Musoke strain) virus; type: cell-based
CatB = type: cell-based
VSV G = type: cell-based, vesicular stomatitis virus (VSV)
Marburg-GP = type: cell-based, Marburg virus
EboV Zaire GP = type: cell-based
Cote d'Ivoire GPΔMuc = type: cell-based, Ebola Cote d'Ivoire
CatL = target: T1, CatL (Chlorocebus aethiops, UniProt Q9GKL8); type: cell-based
T1 construct: CatB and Cathepsin L (CatL) enzymatic activities in CA074-treated cells; endogenous in cells; host or cells: Vero cells
T1 sequence (Q9GKL8 114-333): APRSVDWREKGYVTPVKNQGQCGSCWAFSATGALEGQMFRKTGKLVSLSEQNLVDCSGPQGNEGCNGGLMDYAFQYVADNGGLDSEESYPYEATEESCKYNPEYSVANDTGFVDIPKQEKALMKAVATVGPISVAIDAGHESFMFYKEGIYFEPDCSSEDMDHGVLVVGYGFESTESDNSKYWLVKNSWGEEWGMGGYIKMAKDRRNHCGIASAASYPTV

Sudan GPΔMuc = type: cell-based, Ebola Sudan
Reston GPΔMuc = type: cell-based, Ebola Reston
[2] = system: cell-cell fusion mediated by Nipah virus glycoproteins F and G; type: cell-based; conditions: 24 hours

Row | Compound | expression of cell-associated GP1 (EboV-Zaire (1995 strain)) | inhibition of growth of Marburg virus on Vero cells [1] | approximate level of cellular CatB activity (B %) (CatB) [%] | VSV G-dependent infection (VSV G) | infectivity of Marburg (Marburg-GP) | EboV GP-dependent infection of Vero cells (EboV Zaire GP) | block of infection, Ebola Zaire (EboV Zaire GP) [%] | reduction of infection in the absence of detectable CatB activity (EboV Zaire GP) [%] | block of infection, Cote d'Ivoire (Cote d'Ivoire GPΔMuc) [%] | approximate level of cellular CatL activity (L %) (CatL) [%] | inhibition of infection, Sudan (Sudan GPΔMuc) [%] | infectivity of Reston (Reston GPΔMuc) | cell-cell fusion by Nipah virus glycoproteins (syncytia) [2] | inhibition of CatB activity (CatB) | infection, Marburg (Marburg-GP) | infection, Zaire (EboV Zaire GP) | infection, Cote d'Ivoire (Cote d'Ivoire GPΔMuc) | inhibition of CatL activity (CatL) | infection, Sudan (Sudan GPΔMuc) | infection, Reston (Reston GPΔMuc)
1 | CCCNC(=O)[C@H]1O[C@@H]1C(=O)N[C@H](C(=O)N1CCC[C@H]1C(=O)O)[C@@H](C)CC [CA074] | markedly reduced | not each alone | ~10 | Neither compound inhibited | unaffected | inhibited infection | ~99 | ~99.9 | ~99 | ~100 | 90 | unaffected |  |  |  |  |  |  |  | 
2 | CC(C)(C)Oc1ccc(C[C@H](NC(=O)[C@H](Cc2ccccc2)NC(=O)OCc2ccccc2)C(=O)C=[N+]=[N-])cc1 [FYdmk, Z-Phe-Tyr-(tBu)-diazomethylketone] (Cbz-Phe-Tyr(tBu)-CHN2) |  | not each alone | ~10 | Neither compound inhibited |  | inhibited infection |  |  |  | ~0 |  |  | dramatically reduces cell-cell fusion; also recorded: inhibits cell-cell fusion | can inhibit | blocked | blocked | blocked | can inhibit | blocked | blocked
